Measurements: US10385031B2, “Substituted piperazines as selective HDAC1,2 inhibitors” (Regenacy Pharmaceuticals, LLC, priority 2016, dated 2019)
Values belong to the compound of their own block, whether it stands above or below them.

Columns and labels:
[1] = biological target: hERG (Homo sapiens (Human), UniProt Q12809); assay: hERG inhibition, whole-cell patch clamp; type: cell-based; conditions: HEK293 cells stably transfected with hERG, 34 °C, tail current
Description: For hERG inhibition assays, the cells used were HEK293 cells stably transfected with hERG (cell line obtained from Cytocentrics Inc. 3463 Magic Drive San Antonio, Tex. 78229). Composition of External Solution: NaCl, 137 mM; KCl, 4 mM; MgCl2, 1.0 mM; CaCl2, 1.8 mM; HEPES 10 mM; Dextrose 11 mM; Adjusted to a pH of 7.4 with NaOH. Composition of Internal Solution: KCl, 130.0 mM; MgCl2, 1.0 mM; HEPES, 5.0 mM; EGTA, 5.0 mM; NaCl 7.0 mM. Adjusted to a pH of 7.2 using KOH. Test Concentrations: 0.1, 1, 10, 100 μM. Vehicle: DMSO. Experiments were performed at 34+/−1° C. Current was recorded using the whole-cell patch clamp technique on the Cytopatch automated platform. hERG current was elicited with the following voltage protocol: hERG current amplitude was measured as the peak current at −50 mV (tail current). […] Each cell served as its own control. Data are presented as the IC50 calculated by non-linear regression analysis.

[2] = biological target: CYP3A4 (Homo sapiens (Human), UniProt P08684); assay: Cyp inhibition in human liver microsomes (3A4/midazolam); type: in vitro ADME
Sequence of CYP3A4 (P08684 whole entry): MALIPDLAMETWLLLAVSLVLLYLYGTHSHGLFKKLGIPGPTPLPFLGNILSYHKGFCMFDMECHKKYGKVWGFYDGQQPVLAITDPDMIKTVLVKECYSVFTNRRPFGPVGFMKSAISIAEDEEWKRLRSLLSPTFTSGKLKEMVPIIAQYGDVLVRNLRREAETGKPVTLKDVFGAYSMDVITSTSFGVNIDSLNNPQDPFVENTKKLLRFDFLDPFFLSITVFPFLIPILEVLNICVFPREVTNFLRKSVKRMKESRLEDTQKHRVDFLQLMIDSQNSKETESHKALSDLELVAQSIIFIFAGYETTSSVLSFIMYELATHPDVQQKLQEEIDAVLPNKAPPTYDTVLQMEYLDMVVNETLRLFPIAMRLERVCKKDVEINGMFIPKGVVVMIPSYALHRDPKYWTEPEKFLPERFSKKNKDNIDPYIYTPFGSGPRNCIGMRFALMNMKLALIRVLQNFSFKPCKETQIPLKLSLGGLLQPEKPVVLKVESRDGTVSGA
Description: (§1) CYP2C9: Diclofenac at 10 μM; CYP2C19: S-Mephenytoin at 35 μM; CYP3A4: Midazolam at 5 μM and Testosterone at 80 μM; CYP2D6: Bufuralol at 10 μM) for the following incubation times: CYP1A2, 2C9, 2D6: 10 minutes, 37° C.; CYP2C19: 45 minutes, 37° C.; CYP3A4: 5 minutes, 37° C. Substrate conversion was measured by liquid chromatography/mass spectrometry/mass spectrometry (LC/MS/MS). Inhibition was calculated by curve fitting in Graph Pad Prism.

[3] = Rat pharmacokinetics, cassette dosing (IV and PO); type: in vivo; conditions: rat, plasma, male SD rats; for bioavailability: 5 mg/kg, oral AUC to IV AUC, dose adjusted; for IV clearance: IV 1 mg/kg; for AUC / Cmax / half-life: PO 5 mg/kg; for half-life: read-out: PO T½ (converted)
Description: Male SD rats were fasted overnight. Compounds of the invention were dissolved in dimethyl acetamide at 10 times the final concentration, then Solutol HS 15 (BASF) was added to a final concentration of 10%. Finally 80% saline was added and vortexed to achieve a clear solution. For the IV dosing three animals were injected via the foot dorsal vein with 1 mg/kg compound. For the PO dosing 5 mg/kg of compound was delivered by oral gavage. Blood was collected via the tail vein into K2EDTA tubes at 5 minutes, 15 minutes, 30 minutes, 1 hour, 2 hours, 4 hours, 8 hours and 24 hours after dosing. The blood was centrifuged at 2000 g for 5 minutes at 4° C. to obtain plasma. The plasma was extracted with acetonitrile and the level of compound was analyzed by LC/MS/MS. The level of compound in plasma was calculated from a standard curve in rat plasma. The IV clearance (L/h/kg) and area under the curve (h*ng/mL) were calculated using WinNonLin software. The dose adjusted area under the curve for the IV and oral dosing were used to calculate the oral bioavailability.
Pharmacokinetic properties were assessed in a rat cassette dosing experiment. The IV clearance (IV Clr.) is in units of L/hr/kg. The oral maximum plasma concentration (PO Cmax) is in units of ng/ml. The oral plasma half-life (PO T½) is in units of hours. The oral area under the curve (PO AUC) is in units of hours*ng/ml. The fraction absorbed by the oral route (F %) is a percentage of the oral area under the curve to the IV area under the curve, dose adjusted.

[4] = test system: CYP1A2, CYP2C9, CYP2C19, CYP3A4, CYP2D6; assay: Cyp inhibition in human liver microsomes (all isozymes); type: in vitro ADME
Description: as §1, with “For Cyp inhibition, human liver microsomes from BD Gentest were incubated with Compound 028 or Compound 032 (10, 3.33, 1.11, 0.37, 0.12, 0.04, 0.01 μM) and substrate (CYP1A2: Phenacetin at 30 μM; CYP2C9:” for “CYP2C9:”

Sequence of hERG (Q12809 whole entry): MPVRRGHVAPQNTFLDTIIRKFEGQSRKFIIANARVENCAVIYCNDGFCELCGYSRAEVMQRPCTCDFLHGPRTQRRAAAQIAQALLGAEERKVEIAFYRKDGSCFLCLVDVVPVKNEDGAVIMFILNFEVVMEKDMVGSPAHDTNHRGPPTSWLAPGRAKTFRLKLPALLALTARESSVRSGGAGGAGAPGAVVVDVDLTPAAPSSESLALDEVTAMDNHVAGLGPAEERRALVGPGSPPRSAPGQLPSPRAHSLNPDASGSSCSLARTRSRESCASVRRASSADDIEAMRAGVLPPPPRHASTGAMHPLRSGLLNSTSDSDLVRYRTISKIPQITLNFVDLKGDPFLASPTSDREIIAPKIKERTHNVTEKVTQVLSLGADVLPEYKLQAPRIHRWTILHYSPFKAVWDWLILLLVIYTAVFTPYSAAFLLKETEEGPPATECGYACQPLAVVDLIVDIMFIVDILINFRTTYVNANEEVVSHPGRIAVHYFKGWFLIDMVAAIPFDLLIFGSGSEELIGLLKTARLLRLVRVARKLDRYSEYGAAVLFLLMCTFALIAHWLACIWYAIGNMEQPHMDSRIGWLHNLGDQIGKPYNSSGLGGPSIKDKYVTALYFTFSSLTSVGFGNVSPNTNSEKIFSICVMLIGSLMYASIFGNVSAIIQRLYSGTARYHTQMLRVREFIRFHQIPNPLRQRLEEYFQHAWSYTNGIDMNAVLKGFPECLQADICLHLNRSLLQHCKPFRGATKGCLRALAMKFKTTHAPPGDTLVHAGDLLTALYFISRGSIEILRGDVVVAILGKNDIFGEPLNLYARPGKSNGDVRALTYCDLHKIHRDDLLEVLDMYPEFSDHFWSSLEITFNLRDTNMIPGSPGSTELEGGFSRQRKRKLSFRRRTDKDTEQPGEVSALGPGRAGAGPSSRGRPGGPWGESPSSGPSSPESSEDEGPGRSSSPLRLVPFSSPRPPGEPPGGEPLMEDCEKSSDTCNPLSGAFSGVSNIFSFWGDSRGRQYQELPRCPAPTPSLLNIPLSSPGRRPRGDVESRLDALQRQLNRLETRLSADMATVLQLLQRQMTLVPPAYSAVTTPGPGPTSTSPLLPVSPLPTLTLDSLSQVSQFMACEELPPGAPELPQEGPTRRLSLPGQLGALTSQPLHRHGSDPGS

bioavailability [3]: 78.6% | IV clearance [3]: 10.5 mL/min/kg | AUC [3]: 6190 ng·h/mL | Cmax [3]: 839 ng/mL | half-life [3]: 3 h | IC50 [4]: > 10 µM
SMILES: CN1CCN(c2ccc(C(=O)Nc3cc(-c4ccncc4)ccc3N)cn2)CC1 [Compound 027]
IC50 [1]: > 100 µM

IC50 [4]: > 10 µM
SMILES: Cc1nc(N2CCNCC2)sc1C(=O)Nc1cc(-c2cccs2)ccc1N [Compound 031]
IC50 [1]: 12 µM

IC50 [4]: > 10 µM
SMILES: Nc1ccc(-c2cccs2)cc1NC(=O)c1ccc(N2CCNCC2)nc1 [Compound 007]
IC50 [1]: 8.6 µM

Continued, compound first:

SMILES: CN1CCN(c2ccc(C(=O)Nc3cc(-c4ccncc4)ccc3N)nc2)CC1 [Compound 028]
IC50 [1]: 38 µM | IC50 [2]: 5.9 µM

SMILES: Nc1ccc(-c2ccco2)cc1NC(=O)c1ccc2nc(N3CCNCC3)ccc2c1 [Compound 003]
bioavailability [3]: 77% | IV clearance [3]: 3.17 mL/min/kg | AUC [3]: 19100 ng·h/mL | Cmax [3]: 1910 ng/mL | half-life [3]: 5 h | IC50 [1]: 7.6 µM | IC50 [4]: > 10 µM

SMILES: Nc1ccc(-c2ccncc2)cc1NC(=O)c1cnc(N2CCNCC2)s1 [Compound 032]
bioavailability [3]: 9.7% | IV clearance [3]: 17.7 mL/min/kg | AUC [3]: 456 ng·h/mL | Cmax [3]: 173 ng/mL | half-life [3]: 4.3 h | IC50 [1]: 12 µM | IC50 [2]: 9.5 µM

SMILES: Nc1ccc(-c2ccccc2)cc1NC(=O)c1cc2ccc(N3CCNCC3)cc2cn1 [Compound 022]
bioavailability [3]: 195% | IV clearance [3]: 16.3 mL/min/kg | AUC [3]: 8180 ng·h/mL | Cmax [3]: 517 ng/mL | half-life [3]: 13.5 h | IC50 [1]: 0.4 µM | IC50 [4]: > 10 µM
